# From article PMC4059350 (DNA repair, 2014)
# Where a chain is given by its changes, count along the chain named.
# Experiments:
# [1] = molecular target: T1, Msh2-Msh3 (Saccharomyces cerevisiae, UniProt P25336+P25847); assay: nitrocellulose filter binding, competition with […]-ATPγS after ADP pre-binding; conditions: no DNA; 0.5 mM ADP, 8 μM ATPγS, 50 nM protein
# T1 sequence (P25847 1-964): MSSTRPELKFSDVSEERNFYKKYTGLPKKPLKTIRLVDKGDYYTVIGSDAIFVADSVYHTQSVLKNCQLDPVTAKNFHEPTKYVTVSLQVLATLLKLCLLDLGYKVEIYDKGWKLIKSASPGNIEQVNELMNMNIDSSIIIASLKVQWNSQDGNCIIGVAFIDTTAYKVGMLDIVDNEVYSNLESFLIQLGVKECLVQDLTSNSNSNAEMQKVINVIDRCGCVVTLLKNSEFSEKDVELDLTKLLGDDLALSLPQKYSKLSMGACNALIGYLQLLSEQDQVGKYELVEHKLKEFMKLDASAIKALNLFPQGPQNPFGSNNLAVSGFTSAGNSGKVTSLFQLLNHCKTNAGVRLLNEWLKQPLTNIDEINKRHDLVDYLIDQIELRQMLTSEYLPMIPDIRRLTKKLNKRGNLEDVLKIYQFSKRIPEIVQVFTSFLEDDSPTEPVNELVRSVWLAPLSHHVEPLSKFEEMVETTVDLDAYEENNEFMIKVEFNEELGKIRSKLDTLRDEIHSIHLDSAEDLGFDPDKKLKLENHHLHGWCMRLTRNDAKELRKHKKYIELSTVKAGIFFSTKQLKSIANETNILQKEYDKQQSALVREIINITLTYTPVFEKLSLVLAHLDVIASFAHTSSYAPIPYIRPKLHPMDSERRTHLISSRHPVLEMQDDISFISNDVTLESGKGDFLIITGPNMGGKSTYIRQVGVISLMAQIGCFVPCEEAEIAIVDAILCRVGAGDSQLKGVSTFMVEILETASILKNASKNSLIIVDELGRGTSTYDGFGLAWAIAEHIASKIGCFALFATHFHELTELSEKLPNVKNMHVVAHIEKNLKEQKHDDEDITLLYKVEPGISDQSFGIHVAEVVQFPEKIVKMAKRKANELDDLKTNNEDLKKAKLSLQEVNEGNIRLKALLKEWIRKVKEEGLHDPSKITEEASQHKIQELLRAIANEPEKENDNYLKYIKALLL
# T1 sequence (P25336 1-1018): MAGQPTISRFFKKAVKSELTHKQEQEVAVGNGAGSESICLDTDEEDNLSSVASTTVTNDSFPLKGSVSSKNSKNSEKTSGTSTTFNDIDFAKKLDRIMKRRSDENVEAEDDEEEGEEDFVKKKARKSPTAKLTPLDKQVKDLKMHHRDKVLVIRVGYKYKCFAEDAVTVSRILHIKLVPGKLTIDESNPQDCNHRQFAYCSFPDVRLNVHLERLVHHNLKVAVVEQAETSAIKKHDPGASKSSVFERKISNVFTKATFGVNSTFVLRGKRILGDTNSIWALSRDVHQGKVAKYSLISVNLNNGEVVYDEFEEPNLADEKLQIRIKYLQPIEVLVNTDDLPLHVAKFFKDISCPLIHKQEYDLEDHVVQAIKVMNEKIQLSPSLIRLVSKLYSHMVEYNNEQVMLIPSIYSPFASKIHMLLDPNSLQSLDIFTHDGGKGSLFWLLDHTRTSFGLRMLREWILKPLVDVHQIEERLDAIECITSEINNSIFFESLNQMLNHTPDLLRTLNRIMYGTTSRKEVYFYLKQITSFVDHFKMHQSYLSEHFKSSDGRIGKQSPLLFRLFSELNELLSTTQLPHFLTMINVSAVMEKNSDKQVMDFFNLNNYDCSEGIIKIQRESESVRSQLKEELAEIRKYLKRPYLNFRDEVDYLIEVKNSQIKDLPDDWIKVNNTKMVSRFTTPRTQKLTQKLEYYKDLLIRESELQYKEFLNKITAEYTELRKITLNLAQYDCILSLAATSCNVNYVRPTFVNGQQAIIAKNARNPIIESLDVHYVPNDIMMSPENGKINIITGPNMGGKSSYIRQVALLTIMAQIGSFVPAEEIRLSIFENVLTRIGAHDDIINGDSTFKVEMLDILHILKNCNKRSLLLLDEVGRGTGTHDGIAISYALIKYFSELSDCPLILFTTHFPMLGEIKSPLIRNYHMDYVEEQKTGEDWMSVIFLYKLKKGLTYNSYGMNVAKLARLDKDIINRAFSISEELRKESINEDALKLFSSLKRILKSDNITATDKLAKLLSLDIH
# [2] = molecular target: T1, Msh2-Msh3; assay: ATPγS titration into steady-state coupled ATPase assay; format: biochemical
# [3] = molecular target: T2, Msh2-Msh3 (Saccharomyces cerevisiae, UniProt P25336+P25847, P25336:Y942A); assay: as above; format: biochemical
# T2 sequence (P25847 1-964): T1 sequence (P25847 1-964)
# T2 sequence (P25336 1-1018 Y942A): T1 sequence (P25336 1-1018) with Y942A
SMILES,"fraction of ATPγS bound relative to no ADP, 30 s [1]",IC50 [2],IC50 [3]
Nc1ncnc2c1ncn2[C@@H]1O[C@H](COP(=O)(O)OP(=O)(O)O)[C@@H](O)[C@H]1O [ADP],0.54 ± 0.15 fraction,,
Nc1ncnc2c1ncn2[C@@H]1O[C@H](CO[P@](=O)(O)O[P@](=O)(O)O[P@@](=O)(O)S)[C@@H](O)[C@H]1O [ATPγS],,6.3 mM,0.8 mM
